Assay results reported in PMC11643962, “Exploring 4,7-Disubstituted Pyrimido[4,5-d]pyrimidines as Antiviral and Anticancer Agents” (Molecules, 2024).

Assays:
HCoV-229E = test: Antiviral CPE reduction assay, HCoV-229E in HEL299 cells; type: cell-based, human coronavirus 229E; settings: Human coronavirus 229E, HEL 299, MTS, mean ± SD of two or three independent experiments
HCoV-OC43 = test: Antiviral CPE reduction assay, HCoV-OC43 in HEL299 cells; type: cell-based, human coronavirus OC43; settings: Betacoronavirus 1, OC43, HEL 299, MTS, mean ± SD of two or three independent experiments
HCoV-NL63 = test: Antiviral CPE reduction assay, HCoV-NL63 in Hep3B cells; type: cell-based, human coronavirus NL63; settings: Human coronavirus NL63, MTS, mean ± SD of two or three independent experiments
[1] = tested on: influenza A/H1N1 (A/Ned/378/05); test: Antiviral CPE reduction assay, influenza A/H1N1 in MDCK cells; type: cell-based, influenza A virus; settings: Influenza A virus, H1N1; MDCK cells; CPE reduction, MTS; mean ± SD of two or three independent experiments; read-out: Antiviral Activity (EC50) Influenza H1N1
[2] = tested on: influenza A/H3N2 (A/HK/7/87); test: Antiviral CPE reduction assay, influenza A/H3N2 in MDCK cells; type: cell-based, influenza A virus; settings: Influenza A virus, H3N2; MDCK cells; CPE reduction, MTS; mean ± SD of two or three independent experiments; read-out: Antiviral Activity (EC50) Influenza H3N2
[3] = tested on: influenza B (B/Ned/537/05); test: Antiviral CPE reduction assay, influenza B in MDCK cells; type: cell-based, influenza B virus; settings: Influenza B virus, MDCK, read-out: Antiviral Activity (EC50) Influenza B
[4] = tested on: respiratory syncytial virus A (RSV A Long); test: Antiviral CPE reduction assay, RSV A Long in Hep2 cells; type: cell-based; settings: human respiratory syncytial virus, HEp-2; Hep2 cells; CPE reduction, MTS; mean ± SD of two or three independent experiments; read-out: Antiviral Activity (EC50) RSV A Long
[5] = tested on: herpes simplex virus-1 (HSV-1 KOS); test: Antiviral CPE reduction assay, HSV-1 KOS in HEL299 cells; type: cell-based; settings: Human alphaherpesvirus 1, HEL 299, MTS, mean ± SD, no unit printed on the supplement page (Table 2 of the same screen is in µM)
[6] = tested on: yellow fever virus (YFV 17D); test: microbe, parasite or virus in culture; type: cell-based; settings: Yellow fever virus, Vero C1008, read-out: Antiviral activity (EC50) YFV 17D
Zika virus (ZikV mr766) = test: Antiviral CPE reduction assay, Zika virus mr766 in VeroE6 cells; type: cell-based; settings: Zika virus, Vero C1008, MTS, mean ± SD, no unit printed on the supplement page (Table 2 of the same screen is in µM)
[7] = tested on: variety of viruses (HSV-1, influenza viruses, yellow fever virus, Zika virus, RSV, HCoV-229E, HCoV-OC43, HCoV-NL63); type: cell-based; settings: CPE reduction assays, virus panel
in vitro [8] = settings: human
in vitro [9] = settings: human; remark: listed apart in the source
in vitro [10] = settings: dog
in vitro [11] = settings: human; remark: listed apart in the source
in vitro [12] = settings: African green monkey
[13] = tested on: HL-60 (acute myeloid leukemia); test: MTS proliferation assay, HL-60; settings: Homo sapiens, HL-60, 72 h, read-out: Anti-Proliferative Activity (IC50) HL-60
[14] = tested on: K-562 (chronic myeloid leukemia); test: MTS proliferation assay, K-562; settings: Homo sapiens, K562, 72 h, read-out: Anti-Proliferative Activity (IC50) K-562
[15] = tested on: Z-138 (non-Hodgkin lymphoma); test: MTS proliferation assay, Z-138; settings: Homo sapiens, Z-138, 72 h, read-out: Anti-Proliferative Activity (IC50) Z-138
LN-229 (glioblastoma) = test: MTS proliferation assay, LN-229; settings: Homo sapiens, LN-229, 72 h, read-out: Anti-Proliferative Activity (IC50) LN-229
[16] = tested on: DND-41 (acute lymphoblastic leukemia); test: MTS proliferation assay, DND-41; settings: Homo sapiens, DND41, 72 h, read-out: Anti-Proliferative Activity (IC50) DND-41
[17] = tested on: Capan-1 (pancreatic adenocarcinoma); test: MTS proliferation assay, Capan-1; settings: Homo sapiens, CAPAN-1, 72 h, read-out: Anti-Proliferative Activity (IC50) Capan-1
[18] = tested on: HCT-116 (colorectal carcinoma); test: MTS proliferation assay, HCT-116; settings: Homo sapiens, HCT-116, 72 h, read-out: Anti-Proliferative Activity (IC50) HCT-116
[19] = tested on: NCI-H460 (lung carcinoma); test: MTS proliferation assay, NCI-H460; settings: Homo sapiens, NCI-H460, 72 h, read-out: Anti-Proliferative Activity (IC50) NCI-H460

Row | SMILES | EC50 (HCoV-229E) [µM] | EC50 (HCoV-OC43) [µM] | EC50 (HCoV-NL63) [µM] | EC50 [1] [µM] | EC50 [2] [µM] | EC50 [3] [µM] | EC50 [4] [µM] | EC50 [5] [µM] | EC50 [6] [µM] | EC50 (Zika virus (ZikV mr766)) [µM] | melting point [°C] | CC50 (in vitro [10]) [µM] | CC50 (in vitro [12]) [µM] | IC50 [13] [µM] | IC50 [14] [µM] | IC50 [15] [µM] | IC50 (LN-229 (glioblastoma)) [µM] | IC50 [16] [µM] | IC50 [17] [µM] | IC50 [18] [µM] | further results
1 | CN1CCN(c2ncc3c(Nc4cccc5c4CCC5)ncnc3n2)CC1 [Compound 7d, N-(2,3-dihydro-1H-inden-4-yl)-7-(4-methylpiperazin-1-yl)pyrimido[4,5-d]pyrimidin-4-amine] | > 50 | > 50 | > 50 | > 50 | > 50 | > 50 | > 50 | > 50 | > 50 | > 50 | > 250 | > 50 | > 50 | ≥ 71 | 61.3 ± 2.4 | 56.5 ± 1.2 | > 100 | 80.6 ± 10.2 | > 100 | > 100 | antiviral activity (in words) [7]: inactive; CC50 (in vitro [8]): > 50 µM; CC50 (in vitro [9]): > 50 µM; CC50 (in vitro [11]): > 50 µM; IC50 [19]: > 100 µM
2 | C#Cc1cccc(Nc2ncnc3nc(N4CCN(C)CC4)ncc23)c1 [Compound 7h, N-(3-ethynylphenyl)-7-(4-methylpiperazin-1-yl)pyrimido[4,5-d]pyrimidin-4-amine] | > 50 | > 50 | > 50 | > 50 | > 50 | > 50 | > 50 | > 50 | > 50 | > 50 | 290 | > 50 | > 50 | 79.1 ± 4.6 | 52.3 ± 4.4 | 52.6 ± 1.4 | 97.1 ± 1.5 | 66.5 ± 0.8 | > 100 | > 100 | antiviral activity (in words) [7]: inactive; IC50 [19]: > 100 µM
3 | c1cc2c(c(Nc3ncnc4nc(NC5CC5)ncc34)c1)CCCC2 [Compound 7c, N^2-cyclopropyl-N^5-(5,6,7,8-tetrahydronaphthalen-1-yl)pyrimido[4,5-d]pyrimidine-2,5-diamine] | > 50 | > 50 | > 50 | > 50 | > 50 | > 50 | > 50 | > 50 | > 50 | > 50 | 189 | > 50 | > 50 | > 100 | > 100 | > 100 | > 100 | > 100 | > 100 | > 100 | antiviral activity (in words) [7]: inactive; CC50 (in vitro [8]): > 50 µM; CC50 (in vitro [9]): > 50 µM; CC50 (in vitro [11]): > 50 µM; IC50 [19]: > 100 µM
4 | CN1CCN(c2ncc3c(Nc4cccnc4)ncnc3n2)CC1 [Compound 7k, 7-(4-methylpiperazin-1-yl)-N-(pyridin-3-yl)pyrimido[4,5-d]pyrimidin-4-amine] | > 50 | > 50 | > 50 | > 50 | > 50 | > 50 | > 50 | > 50 | > 50 | > 50 | > 300 | > 50 | > 50 | > 100 | > 100 | > 100 | > 100 | > 100 | > 100 | > 100 | antiviral activity (in words) [7]: inactive; CC50 (in vitro [8]): > 50 µM; CC50 (in vitro [9]): > 50 µM; CC50 (in vitro [11]): > 50 µM; IC50 [19]: > 100 µM
5 | CCN(CC)CCNc1ncc2c(Nc3cccnc3)ncnc2n1 [Compound 7l, N^2-[2-(diethylamino)ethyl]-N^5-(pyridin-3-yl)pyrimido[4,5-d]pyrimidine-2,5-diamine] | > 50 | > 50 | > 50 | > 50 | > 50 | > 50 | > 50 | > 50 | > 50 | > 50 | 220 to 224 | > 50 | > 50 | > 100 | > 100 | > 100 | > 100 | > 100 | > 100 | > 100 | CC50 (in vitro [8]): > 50 µM; CC50 (in vitro [9]): > 50 µM; CC50 (in vitro [11]): > 50 µM; IC50 [19]: > 100 µM
